Assay results as given in PubChem BioAssay AID248 (DTP/NCI, 2004).
Where “and” joins values, the source holds several entries; their conditions need not be identical. Equal values may be shown once. Toxic doses and inconclusive results are not listed.

Tested on: L1210 leukemia ip in BDF1 mice, survival T/C
Assay: NCI In Vivo Anticancer Drug Screen. Data for tumor model L1210 Leukemia (intraperitoneal) in B6D2F1 (BDF1) mice
Details: higher = longer survival
Procedure, shortened: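 In this screen, tumor-bearing mice given compound are compared to those given vehicle, and their survival values are reported as a treated-to-control quotient.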

Question: Which T/C (endpoint: mean survival time, dose: 50.0 mg/kg/injection, schedule: Q01DX001 (ip), vehicle: other) does the source give for ClC(c1ccccc1)(c1ccccc1)c1ccccc1 here?
Answer: 96 % of control

Question: What about the T/C (endpoint: mean survival time, dose: 100.0 mg/kg/injection, schedule: Q01DX001 (ip), vehicle: other) of the same compound?
Answer: 102 % of control

Question: What about the T/C (endpoint: mean survival time, dose: 100.0 mg/kg/injection, schedule: Q01DX009 (ip), vehicle: saline) of the same compound?
Answer: 87 % of control

Question: What about the T/C (endpoint: mean survival time, dose: 100.0 mg/kg/injection, schedule: Q04DX003 (ip), vehicle: saline) of the same compound?
Answer: 90 % of control

Question: What about the T/C (endpoint: mean survival time, dose: 200.0 mg/kg/injection, schedule: Q01DX001 (ip), vehicle: other) of the same compound?
Answer: 106 % of control

Question: What about the T/C (endpoint: mean survival time, dose: 200.0 mg/kg/injection, schedule: Q01DX009 (ip), vehicle: saline) of the same compound?
Answer: 94 % of control

Question: What about the T/C (endpoint: mean survival time, dose: 200.0 mg/kg/injection, schedule: Q04DX003 (ip), vehicle: saline) of the same compound?
Answer: 93 % of control

Question: What about the T/C (endpoint: mean survival time, dose: 400.0 mg/kg/injection, schedule: Q01DX001 (ip), vehicle: other) of the same compound?
Answer: 100 % of control

Question: What about the T/C (endpoint: mean survival time, dose: 400.0 mg/kg/injection, schedule: Q01DX009 (ip), vehicle: saline) of the same compound?
Answer: 90 % of control

Question: What about the T/C (endpoint: mean survival time, dose: 400.0 mg/kg/injection, schedule: Q04DX003 (ip), vehicle: saline) of the same compound?
Answer: 88 % of control

Question: For CC1CN1CCS(=O)(=O)CCN1CC1C (stereo not given), which T/C (endpoint: mean survival time, dose: 0.3 mg/kg/injection, schedule: Q01DX015 (ip), vehicle: carboxymethylcellulose (CMC)) is on record?
Answer: 95 % of control

Question: What about the T/C (endpoint: mean survival time, dose: 0.6 mg/kg/injection, schedule: Q01DX015 (ip), vehicle: carboxymethylcellulose (CMC)) of the same compound?
Answer: 101 % of control

Question: What about the T/C (endpoint: mean survival time, dose: 1.2 mg/kg/injection, schedule: Q01DX015 (ip), vehicle: carboxymethylcellulose (CMC)) of the same compound?
Answer: 109 % of control

Question: And the T/C (endpoint: mean survival time, dose: 1.25 mg/kg/injection, schedule: Q01DX015 (ip), vehicle: carboxymethylcellulose (CMC))?
Answer: 101 % of control

Question: And the T/C (endpoint: mean survival time, dose: 2.5 mg/kg/injection, schedule: Q01DX015 (ip), vehicle: carboxymethylcellulose (CMC))?
Answer: 103 % of control and 110 % of control

Question: What about the T/C (endpoint: mean survival time, dose: 3.1 mg/kg/injection, schedule: Q01DX015 (ip), vehicle: saline) of the same compound?
Answer: 102 % of control

Question: What about the T/C (endpoint: mean survival time, dose: 4.6 mg/kg/injection, schedule: Q01DX015 (ip), vehicle: saline) of the same compound?
Answer: 102 % of control

Question: And the T/C (endpoint: mean survival time, dose: 5.0 mg/kg/injection, schedule: Q01DX015 (ip), vehicle: carboxymethylcellulose (CMC))?
Answer: 101 % of control

Question: What about the T/C (endpoint: mean survival time, dose: 7.0 mg/kg/injection, schedule: Q01DX015 (ip), vehicle: saline) of the same compound?
Answer: 94 % of control

Question: And the T/C (endpoint: mean survival time, dose: 10.0 mg/kg/injection, schedule: Q01DX015 (ip), vehicle: carboxymethylcellulose (CMC))?
Answer: 100 % of control and 112 % of control

Question: And the T/C (endpoint: mean survival time, dose: 10.0 mg/kg/injection, schedule: Q01DX015 (ip), vehicle: saline)?
Answer: 100 % of control

Question: What about the T/C (endpoint: mean survival time, dose: 20.0 mg/kg/injection, schedule: Q01DX015 (ip), vehicle: carboxymethylcellulose (CMC)) of the same compound?
Answer: 108 % of control

Question: And the T/C (endpoint: mean survival time, dose: 40.0 mg/kg/injection, schedule: Q01DX015 (ip), vehicle: carboxymethylcellulose (CMC))?
Answer: 114 % of control

Question: How did the T/C (endpoint: mean survival time, dose: 100.0 mg/kg/injection, schedule: Q01DX009 (ip), vehicle: Klucel (hydroxypropylcellulose) (HPC)) turn out when CCOC(=O)C(C)NCc1ccccc1 (stereo not given) was run?
Answer: 94 % of control

Question: And the T/C (endpoint: mean survival time, dose: 100.0 mg/kg/injection, schedule: Q04DX003 (ip), vehicle: Klucel (hydroxypropylcellulose) (HPC))?
Answer: 98 % of control

Question: And the T/C (endpoint: mean survival time, dose: 200.0 mg/kg/injection, schedule: Q01DX009 (ip), vehicle: Klucel (hydroxypropylcellulose) (HPC))?
Answer: 111 % of control

Question: And the T/C (endpoint: mean survival time, dose: 200.0 mg/kg/injection, schedule: Q04DX003 (ip), vehicle: Klucel (hydroxypropylcellulose) (HPC))?
Answer: 93 % of control

Question: What about the T/C (endpoint: mean survival time, dose: 400.0 mg/kg/injection, schedule: Q01DX009 (ip), vehicle: Klucel (hydroxypropylcellulose) (HPC)) of the same compound?
Answer: 103 % of control

Question: And the T/C (endpoint: mean survival time, dose: 400.0 mg/kg/injection, schedule: Q04DX003 (ip), vehicle: Klucel (hydroxypropylcellulose) (HPC))?
Answer: 96 % of control

Question: Which results are given for C[n+]1c2ccccc2c(Nc2ccc(NS(=O)(=O)CCCCN=C(N)N)cc2)c2ccc(N)cc21?
Answer: T/C (endpoint: mean survival time, dose: 0.5 mg/kg/injection, schedule: Q03HX008 (ip), vehicle: water): 167 % of control; T/C (endpoint: mean survival time, dose: 1.5 mg/kg/injection, schedule: Q01DX009 (ip), vehicle: water): 186 % of control; T/C (endpoint: mean survival time, dose: 2.0 mg/kg/injection, schedule: Q03HX008 (ip), vehicle: water): 160 % of control; T/C (endpoint: mean survival time, dose: 3.0 mg/kg/injection, schedule: Q01DX009 (ip), vehicle: water): 160 % of control and 212 % of control; T/C (endpoint: mean survival time, dose: 3.0 mg/kg/injection, schedule: Q03HX008 (ip), vehicle: water): 240 % of control; T/C (endpoint: mean survival time, dose: 3.12 mg/kg/injection, schedule: Q04DX003 (ip), vehicle: water): 191 % of control; T/C (endpoint: mean survival time, dose: 6.0 mg/kg/injection, schedule: Q01DX009 (ip), vehicle: water): 176 % of control and 218 % of control; T/C (endpoint: mean survival time, dose: 6.0 mg/kg/injection, schedule: Q03HX008 (ip), vehicle: water): 327 % of control; T/C (endpoint: mean survival time, dose: 6.25 mg/kg/injection, schedule: Q04DX003 (ip), vehicle: water): 152 % of control and 170 % of control; T/C (endpoint: mean survival time, dose: 12.0 mg/kg/injection, schedule: Q01DX009 (ip), vehicle: water): 269 % of control; T/C (endpoint: mean survival time, dose: 12.5 mg/kg/injection, schedule: Q01DX001 (ip), vehicle: water): 186 % of control; T/C (endpoint: mean survival time, dose: 12.5 mg/kg/injection, schedule: Q04DX003 (ip), vehicle: water): 171 % of control and 202 % of control; T/C (endpoint: mean survival time, dose: 25.0 mg/kg/injection, schedule: Q01DX001 (ip), vehicle: water): 207 % of control; T/C (endpoint: mean survival time, dose: 25.0 mg/kg/injection, schedule: Q04DX003 (ip), vehicle: water): 194 % of control and 225 % of control; T/C (endpoint: median survival time, dose: 3.0 mg/kg/injection, schedule: Q01DX009 (oral), vehicle: water): 97 % of control; T/C (endpoint: median survival time, dose: 6.0 mg/kg/injection, schedule: Q01DX009 (oral), vehicle: water): 103 % of control; T/C (endpoint: median survival time, dose: 6.0 mg/kg/injection, schedule: Q01DX009 (sc), vehicle: water): 166 % of control; T/C (endpoint: median survival time, dose: 12.0 mg/kg/injection, schedule: Q01DX009 (oral), vehicle: water): 98 % of control; T/C (endpoint: median survival time, dose: 12.0 mg/kg/injection, schedule: Q01DX009 (sc), vehicle: water): 163 % of control; T/C (endpoint: median survival time, dose: 24.0 mg/kg/injection, schedule: Q01DX009 (oral), vehicle: water): 94 % of control; T/C (endpoint: median survival time, dose: 48.0 mg/kg/injection, schedule: Q01DX009 (oral), vehicle: water): 95 % of control
